For data set [1], the target named is T1, Serotonin reuptake (whole rat brain synaptosomes) (Rattus norvegicus, UniProt P31652).
T1 construct: from tissue; host or cells: whole rat brain synaptosomes
Put plainly: Inhibition of 3H-5-HT uptake into rat brain synaptosomes. In kind it is biochemical. The method, then:
Inhibition of ^3H-5-HT Uptake Into Rat Brain Synaptosomes
Using this method the ability of drugs to inhibit the accumulation of ^3H-5-HT into whole rat brain synaptosomes is determined in vitro.

In data set [2] the target is T2, cloned human 5-HT1A receptors (Homo sapiens, UniProt P08908).
T2 construct: expressed in transfected cells; host or cells: HeLa cells (HA7)
T2 sequence (P08908 1-422): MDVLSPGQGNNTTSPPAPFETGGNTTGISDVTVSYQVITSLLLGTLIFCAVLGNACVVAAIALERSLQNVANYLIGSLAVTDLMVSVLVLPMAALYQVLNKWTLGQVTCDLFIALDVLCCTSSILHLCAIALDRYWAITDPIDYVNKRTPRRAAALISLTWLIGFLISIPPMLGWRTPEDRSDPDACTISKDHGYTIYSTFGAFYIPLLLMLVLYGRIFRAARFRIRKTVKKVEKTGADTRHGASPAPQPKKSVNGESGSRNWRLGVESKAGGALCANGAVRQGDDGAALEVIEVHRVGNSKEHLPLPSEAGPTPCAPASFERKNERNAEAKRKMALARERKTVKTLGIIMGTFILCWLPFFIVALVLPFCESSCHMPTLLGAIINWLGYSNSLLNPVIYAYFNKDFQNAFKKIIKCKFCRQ
Put plainly: Inhibition of 3H-5-CT binding to human 5-HT1A receptors. The procedure:
The affinity of the compounds of the invention to 5-HT1A receptors was determined by measuring the inhibition of binding of a radioactive ligand at 5-HT1A receptors as described in the following test:
Inhibition of ^3H-5-CT Binding to Human 5HT1A Receptors
By this method the inhibition by drugs of the binding of the 5-HT1A agonist ^3H-5-carboxamido tryptamine (^3H-5-CT) to cloned human 5-HT1A receptors stably expressed in transfected HeLa cells (HA7) (Fargin, A. et al, J. Biol. Chem., 1989, 264, 14848) is determined in vitro. The assay was performed as a modification of the method described by Harrington, M. A. et al, J. Pharmacol. Exp. Ther., 1994, 268, 1098. Human 5-HT1A receptors (40 μg of cell homogenate) were incubated for 15 minutes at 37° C. in 50 mM Tris buffer at pH 7.7 in the presence of ^3H-5-CT. Non-specific binding was determined by including 10 μM of metergoline. The reaction was terminated by rapid filtration through Unifilter GF/B filters on a Tomtec Cell Harvester. Filters were counted in a Packard Top Counter.

[3] abbreviates: 3H-5-HT accumulation into whole rat brain synaptosomes, in vitro, read-out: Inhibition of Serotonin reuptake IC50.
Setting [4] is: cloned human 5-HT1A receptors in transfected HeLa cells (HA7), 15 minutes at 37° C., pH 7.7.

Where two headings read alike, the source gives them in different places.

T1 sequence (P31652 whole entry): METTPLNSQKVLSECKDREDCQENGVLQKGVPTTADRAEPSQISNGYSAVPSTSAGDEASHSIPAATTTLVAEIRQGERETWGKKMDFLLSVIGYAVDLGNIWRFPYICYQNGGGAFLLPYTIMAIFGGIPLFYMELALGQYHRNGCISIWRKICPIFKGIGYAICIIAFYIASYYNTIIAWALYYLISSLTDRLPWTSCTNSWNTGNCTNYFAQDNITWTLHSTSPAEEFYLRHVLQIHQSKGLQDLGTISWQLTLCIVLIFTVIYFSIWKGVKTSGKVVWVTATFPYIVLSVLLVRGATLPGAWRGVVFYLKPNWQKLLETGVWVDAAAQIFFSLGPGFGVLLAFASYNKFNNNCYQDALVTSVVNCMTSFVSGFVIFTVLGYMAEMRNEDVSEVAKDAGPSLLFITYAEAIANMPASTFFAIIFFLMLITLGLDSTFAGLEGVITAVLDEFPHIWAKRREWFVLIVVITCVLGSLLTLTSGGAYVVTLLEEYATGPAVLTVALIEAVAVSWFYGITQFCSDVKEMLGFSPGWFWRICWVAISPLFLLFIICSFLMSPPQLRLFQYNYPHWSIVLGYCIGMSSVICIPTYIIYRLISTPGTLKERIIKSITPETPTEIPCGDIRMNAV

Consider `c1ccc2c(CCCCN3CCN(c4cccc5[nH]ccc45)CC3)c[nH]c2c1` [Compound 1g, 1-(4-(1H-indol-3-yl)-1-butyl)-4-(1H-indol-4yl)piperazine], for which the IC50 (commonly the concentration at which inhibition is half-maximal) in data set [1] (setting [3]) came to 12 nM; in data set [2] (setting [4]), 13 nM.
Regarding `OCc1cc(N2CCN(CCc3c[nH]c4cc(Cl)ccc34)CC2)c2cc[nH]c2c1` [Compound 3b, 1-(2-(6-Chloro-1H-indol-3-yl)ethyl)-4-(6-hydroxymethyl-1H-indol-4-yl)piperazine], the melting point (commonly the temperature, or range, at which the solid turns liquid) lay within 194 to 196 °C. Moreover, the IC50 in data set [1] turned out to be 33 nM. This molecule also displayed an IC50 in data set [2] (setting [4]) of 120 nM.
The corresponding values for `OCc1cc(N2CCN(CCc3c[nH]c4ccc(Br)cc34)CC2)c2cc[nH]c2c1` [Compound 3c, 1-(2-(5-Bromo-1H-indol-3-yl)ethyl)-4-(6-hydroxymethyl-1H-indol-4-yl)piperazine] are 163 to 165 °C, 46 nM and 1000 nM.
`Clc1cccc2[nH]cc(CCN3CCN(c4cccc5[nH]ccc45)CC3)c12` [Compound 2b, 1-(2-(4-Chloro-1H-indol-3-yl)ethyl)-4-(1H-indol-4-yl)piperazine]: the values for the IC50 in data set [1] and in data set [2] (setting [4]) were 6.9 nM and 11 nM, respectively.
On to `c1ccc2c(CCCN3CCN(c4cccc5[nH]ccc45)CC3)c[nH]c2c1` [Compound 1f, 1-(3-(1H-indol-3-yl)-1-propyl)-4-(1H-indol-4-yl)piperazine], for which the IC50 in data set [1] (setting [3]) amounted to 8.2 nM; in data set [2] (setting [4]), 9.8 nM.
As to `Clc1ccc2c(CCN3CCN(c4cccc5[nH]ccc45)CC3)n[nH]c2c1` [Compound 1k, 1-(2-(6-Chloro-3-indazolyl)ethyl)-4-(1H-indol-4-yl)piperazine], the results for the IC50 in data set [1] (setting [3]) and in data set [2] were 150 nM and 22 nM, respectively.
With `Fc1ccc2occ(CN3CCN(c4cccc5[nH]ccc45)CC3)c2c1` [Compound 4l, 1-(5-Fluoro-3-benzofuranylmethyl)-4-(1H-indol-4-4-yl)piperazine], the figures for the IC50 in data set [1] (setting [3]) and in data set [2] (setting [4]) were 950 nM and 330 nM, respectively.
The corresponding values for `Fc1ccc2occ(CCCCN3CCN(c4cccc5[nH]ccc45)CC3)c2c1` [Compound 1d, 1-(4-(5-Fluoro-3-benzofuranyl)-1-butyl)-4-(1H-indol-4-yl)piperazine] are 31 nM and 2.5 nM.
The corresponding values for `N#Cc1c[nH]c2cccc(N3CCN(CCc4coc5ccc(F)cc45)CC3)c12` [Compound 4n, 1-(3-Cyano-1H-indol-4-yl)-4-(2-(5-fluoro-3-benzofuranyl)ethyl)piperazine] are 65 nM and 5.7 nM.
With `N#Cc1c[nH]c2cccc(N3CCN(CCc4c[nH]c5ccccc45)CC3)c12` [Compound 4m, 1-(3-Cyano-1H-indol-4-yl)-4-(2-(1H-indol-3-yl)ethyl)piperazine], the IC50 in data set [1] turned out to be 3 nM; in data set [2] (setting [4]) it was 3.2 nM.

The record behind these values is patent publication US6391882B1, “4,5,6 and 7-indole and indoline derivatitives, their preparation and use” (H. Lundbeck A/S, priority 1998, dated 2002).
